Where a SMILES comes first, the peptide text is derived from it. [ ]: non-standard residue; d: D form. The star is where a group is joined. X1 = N[C@@H](CCCCNC(=O)CC[C@H](NC(=O)CCCCCCCCCCCCCCCCCCC(=O)O)C(=O)O)C(=O)NCCCC[C@H](N)C(=O)N[C@@H](CCCCNC(=O)C*)C(=O)O; X5 = O=C(O)CCCCCCCCCCCCCCCCCCC(=O)N[C@@H](CCC(=O)NCCOCCOCC(=O)NCCOCCOCC(=O)N[C@@H](CCCCNC(=O)C*)C(=O)O)C(=O)O; Aib = CC(C)(N)C(=O)O

In ChEMBL document CHEMBL5576038, “Design of a novel long-acting dual GLP-1/GIP receptor agonist” (Bioorg Med Chem, 2024) one finds EC50 data, which are given here for 3 molecules.

Test [1] deals with T1, Gastric inhibitory polypeptide receptor (Homo sapiens, UniProt P48546).
T1 sequence (P48546 whole entry): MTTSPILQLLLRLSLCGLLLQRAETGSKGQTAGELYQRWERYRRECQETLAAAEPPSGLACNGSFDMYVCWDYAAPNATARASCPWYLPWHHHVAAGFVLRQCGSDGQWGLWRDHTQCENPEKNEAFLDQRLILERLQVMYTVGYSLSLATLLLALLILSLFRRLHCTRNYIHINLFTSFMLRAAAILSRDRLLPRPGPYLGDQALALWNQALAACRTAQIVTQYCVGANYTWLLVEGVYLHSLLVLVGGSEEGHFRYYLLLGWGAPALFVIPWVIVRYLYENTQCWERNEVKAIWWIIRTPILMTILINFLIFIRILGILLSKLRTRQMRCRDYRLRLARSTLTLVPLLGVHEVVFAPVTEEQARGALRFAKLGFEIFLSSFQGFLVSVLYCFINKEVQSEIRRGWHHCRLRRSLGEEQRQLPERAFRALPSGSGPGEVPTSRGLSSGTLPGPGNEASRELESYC
The test can be described thus: Agonist activity at human GIPR expressed in CHO cells assessed as increase in cAMP production incubated for 30 mins by Eu-cAMP tracer based microplate reader analysis. Format: functional, cell-based.

Test [2] deals with Glucagon-like peptide 1 receptor (Homo sapiens, UniProt P43220). The test is described as follows: Agonist activity at human GLP-1R expressed in CHO cells assessed as increase in cAMP production incubated for 30 mins by Eu-cAMP tracer based microplate reader analysis. Format: functional, cell-based. Background: Changes in cAMP serve as a functional read-out for many G protein-coupled receptors.
Glucagon-like peptide 1 receptor, sequence (P43220 whole entry): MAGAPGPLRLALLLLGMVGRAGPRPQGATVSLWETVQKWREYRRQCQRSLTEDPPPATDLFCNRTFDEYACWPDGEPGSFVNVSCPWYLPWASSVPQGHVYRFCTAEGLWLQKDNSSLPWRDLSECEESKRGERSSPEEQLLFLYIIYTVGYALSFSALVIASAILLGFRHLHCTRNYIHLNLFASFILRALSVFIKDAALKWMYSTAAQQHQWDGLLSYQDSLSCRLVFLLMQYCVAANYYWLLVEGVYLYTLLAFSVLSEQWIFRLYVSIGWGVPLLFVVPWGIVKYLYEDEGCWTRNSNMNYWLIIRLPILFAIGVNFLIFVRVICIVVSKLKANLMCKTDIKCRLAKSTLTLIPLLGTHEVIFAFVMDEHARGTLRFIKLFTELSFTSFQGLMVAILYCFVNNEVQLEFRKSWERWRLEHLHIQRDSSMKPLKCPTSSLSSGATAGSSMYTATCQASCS

A word on the EC50: it is the concentration giving half of the maximal effect. Consider `CC(C)C[C@H](NC(=O)[C@H](CC(C)C)NC(=O)[C@H](Cc1c[nH]c2ccccc12)NC(=O)[C@H](CCC(N)=O)NC(=O)[C@@H](NC(=O)[C@H](Cc1ccccc1)NC(=O)[C@H](CC(C)C)NC(=O)[C@H](CCCCN)NC(=O)[C@H](C)NC(=O)[C@H](C)NC(=O)[C@H](CCC(N)=O)NC(=O)[C@H](CCCCN)NC(=O)[C@H](CCC(=O)O)NC(=O)[C@H](CC(C)C)NC(=O)[C@H](CSCC(=O)NCCCC[C@H](NC(=O)[C@@H](N)CCCCNC(=O)[C@@H](N)CCCCNC(=O)CC[C@H](NC(=O)CCCCCCCCCCCCCCCCCCC(=O)O)C(=O)O)C(=O)O)NC(=O)[C@H](Cc1ccc(O)cc1)NC(=O)[C@H](CO)NC(=O)[C@H](Cc1ccc(O)cc1)NC(=O)[C@H](CC(=O)O)NC(=O)[C@H](CO)NC(=O)[C@@H](NC(=O)[C@H](Cc1ccccc1)NC(=O)[C@@H](NC(=O)CNC(=O)[C@H](CCC(=O)O)NC(=O)C(C)(C)NC(=O)[C@@H](N)Cc1ccc(O)cc1)[C@@H](C)O)[C@@H](C)O)C(C)C)C(=O)N[C@@H](C)C(=O)NCC(=O)NCC(=O)N1CCC[C@H]1C(=O)N[C@@H](CO)C(=O)N[C@@H](CO)C(=O)NCC(=O)N[C@@H](C)C(=O)N1CCC[C@H]1C(=O)N1CCC[C@H]1C(=O)N1CCC[C@H]1C(=O)N[C@@H](CO)C(N)=O` (H-Y[Aib]EGTFTSDYSYC(X1)LEKQAAKLFVQWLLAGGPSSGAPPPS-NH2), for which the EC50 came to 0.14 nM in test [1] and 0.46 nM in test [2].
As for `CC(C)C[C@H](NC(=O)[C@H](CC(C)C)NC(=O)[C@H](Cc1c[nH]c2ccccc12)NC(=O)[C@H](CCC(N)=O)NC(=O)[C@@H](NC(=O)[C@H](Cc1ccccc1)NC(=O)[C@H](CC(C)C)NC(=O)[C@H](CCCCN)NC(=O)[C@H](C)NC(=O)[C@H](C)NC(=O)[C@H](CCC(N)=O)NC(=O)[C@H](CS)NC(=O)[C@H](CCC(=O)O)NC(=O)[C@H](CC(C)C)NC(=O)[C@H](Cc1ccc(O)cc1)NC(=O)[C@H](Cc1ccc(O)cc1)NC(=O)[C@H](CO)NC(=O)[C@H](Cc1ccc(O)cc1)NC(=O)[C@H](CC(=O)O)NC(=O)[C@H](CO)NC(=O)[C@@H](NC(=O)[C@H](Cc1ccccc1)NC(=O)[C@@H](NC(=O)CNC(=O)[C@H](CCC(=O)O)NC(=O)C(C)(C)NC(=O)[C@@H](N)Cc1ccc(O)cc1)[C@@H](C)O)[C@@H](C)O)C(C)C)C(=O)N[C@@H](C)C(=O)NCC(=O)NCC(=O)N1CCC[C@H]1C(=O)N[C@@H](CO)C(=O)N[C@@H](CO)C(=O)NCC(=O)N[C@@H](C)C(=O)N1CCC[C@H]1C(=O)N1CCC[C@H]1C(=O)N1CCC[C@H]1C(=O)N[C@@H](CO)C(N)=O` (H-Y[Aib]EGTFTSDYSYYLECQAAKLFVQWLLAGGPSSGAPPPS-NH2), the values for the EC50 in test [1] (cho) and in test [2] (cho) were 1.87 nM and 0.6 nM, respectively.
`CC(C)C[C@H](NC(=O)[C@H](CC(C)C)NC(=O)[C@H](Cc1c[nH]c2ccccc12)NC(=O)[C@H](CSCC(=O)NCCCC[C@H](NC(=O)COCCOCCNC(=O)COCCOCCNC(=O)CC[C@H](NC(=O)CCCCCCCCCCCCCCCCCCC(=O)O)C(=O)O)C(=O)O)NC(=O)[C@@H](NC(=O)[C@H](Cc1ccccc1)NC(=O)[C@H](CC(C)C)NC(=O)[C@H](CCCCN)NC(=O)[C@H](C)NC(=O)[C@H](C)NC(=O)[C@H](CCC(N)=O)NC(=O)[C@H](CCCCN)NC(=O)[C@H](CCC(=O)O)NC(=O)[C@H](CC(C)C)NC(=O)[C@H](Cc1ccc(O)cc1)NC(=O)[C@H](Cc1ccc(O)cc1)NC(=O)[C@H](CO)NC(=O)[C@H](Cc1ccc(O)cc1)NC(=O)[C@H](CC(=O)O)NC(=O)[C@H](CO)NC(=O)[C@@H](NC(=O)[C@H](Cc1ccccc1)NC(=O)[C@@H](NC(=O)CNC(=O)[C@H](CCC(=O)O)NC(=O)C(C)(C)NC(=O)[C@@H](N)Cc1ccc(O)cc1)[C@@H](C)O)[C@@H](C)O)C(C)C)C(=O)N[C@@H](C)C(=O)NCC(=O)NCC(=O)N1CCC[C@H]1C(=O)N[C@@H](CO)C(=O)N[C@@H](CO)C(=O)NCC(=O)N[C@@H](C)C(=O)N1CCC[C@H]1C(=O)N1CCC[C@H]1C(=O)N1CCC[C@H]1C(=O)N[C@@H](CO)C(N)=O` (H-Y[Aib]EGTFTSDYSYYLEKQAAKLFVC(X5)WLLAGGPSSGAPPPS-NH2): the EC50 is 3.73 nM in test [1] and 0.89 nM in test [2].
